{"source": "paper PMC7910394", "about": "“Design of PSMA ligands with modifications at the inhibitor part: an approach to reduce the salivary gland uptake of radiolabeled PSMA inhibitors?” (EJNMMI Radiopharmacy and Chemistry, 2021)", "key": {"LNCaP cells": {"tested_on": "LNCaP cells", "assay": "Internalization study of 177Lu-labeled ligands in LNCaP cells, normalized to ([125I]I-BA)KuE", "assay_type": "cell-based, human", "conditions": "1 h, 37 °C, 1.0 nM 177Lu-compound, normalized to ([125I]I-BA)KuE", "procedure": "PSMA-positive LNCaP cells (300265; Cell Lines Service, Eppelheim, Germany) were cultivated in Dulbecco’s modified Eagle medium/Nutrition Mixture F-12 with GlutaMAX (1/1, DMEM-F12, Thermo Fisher Scientific, Darmstadt, Germany) supplemented with 10% fetal bovine serum (Merck KGaA, Darmstadt, Germany) and kept at 37 °C in a humidified 5% CO2 atmosphere. One day (24 ± 2 h) prior to all in vitro experiments, the cultivated LNCaP cells were harvested using a mixture of trypsin/ethylenediamine-tetraacetic acid (0.05%/0.02%) in PBS (Thermo Fisher Scientific, Darmstadt, Germany) and centrifuged at 1300 rpm (ca. 190×g) for 3 min at room temperature (Heraeus Megafuge 16, Thermo Fisher Scientific, Darmstadt, Germany). After centrifugation, the supernatant was disposed and the cell pellet was resuspended in culture medium. Cells were counted with a Neubauer hemocytometer (Paul Marienfeld GmbH & Co. KG, Lauda-Königshofen, Germany) and seeded in 24-well plates.\nDetailed information on affinity and internalization experiments is provided in the supporting information. […] IC50 values of (^natI-BA)KuE were determined on the same day for monitoring assay performance and to identify abnormal deviations in uptake and/or affinity. […] Data were corrected for non-specific binding and normalized to the specific internalization observed for the radioiodinated reference compound (n = 3).\nThe culture medium was removed and the cells were washed with 500 µL of DMEM-F12 containing 5% BSA. Afterwards, 200 µL of DMEM-F12 (5% BSA) were added to each well and left to equilibrate at 37 °C for 15 min. 25 µL of DMEM-F12 (5% BSA) were added to each well, followed by the addition of 25 µL of the respective ^177Lu-labeled ligand (10.0 nM in DMEM-F12 (5% BSA)). For blocking PSMA-specific binding and uptake, 25 µL of 2-(phosphonomethyl)pentane-1,5-dioic acid (2-PMPA) (100 µM in DMEM (5% BSA)) instead of DMEM-F12 (5% BSA) were added prior to radiotracer addition. […] Each experiment (control and blockade) was performed in triplicate. […] Incubation was terminated by placing the plate on ice (4 °C, 1 min) and removal of the incubation medium. The cells were washed with 250 µL of ice-cold PBS and the wash medium was combined with the respective supernatant. This fraction represents the amount of free radioligand. 250 µL of ice-cold 2-PMPA (10 µM in PBS) were added and the cells were incubated for 10 min at 4 °C. Afterwards, the cells were rinsed again with 250 µL of ice-cold PBS and the wash medium was combined with the respective supernatant. This fraction represents the amount of cell surface-bound ligand. In the last step, the cells were lysed by addition of 250 µL of 1 M aqueous NaOH. After 20 min, the lysate of each well was transferred to the respective vial as well as 250 µL of 1 M NaOH used for rinsing the well. This fraction represents the amount of internalized radioligand. Quantification of the amount of free, cell surface-bound and internalized activity was performed in a γ-counter."}, "[1]": {"tested_on": "LNCaP tumor xenograft-bearing CB17-SCID mice", "assay_type": "in vivo, mouse", "procedure": "All animal experiments were conducted in accordance with general animal welfare regulations in Germany (German animal protection act, as amended on 18.05.2018, Art. 141 G v. 29.3.2017 I 626, approval no. 55.2–1-54-2532-71-13) and the institutional guidelines for the care and use of animals. To establish tumor xenografts, LNCaP cells (approx. 10^7 cells) were suspended in 200 μL of a 1/1 mixture (v/v) of DMEM F-12 and Matrigel (BD Biosciences, Heidelberg, Germany) and inoculated subcutaneously onto the right shoulder of 6–8 weeks old CB17-SCID mice (Charles River Laboratories, Sulzfeld, Germany). Mice were used for experiments when tumor size reached 5–10 mm in diameter (3–6 weeks after inoculation).\nApproximately 2–10 MBq (0.20 nmol) of the ^177Lu-labeled PSMA inhibitors were injected into the tail vein of LNCaP tumor xenograft-bearing male CB17-SCID mice (n = 3 to 5). They were sacrificed by CO2 asphyxiation and cervical dislocation either 1 h or 24 h post injection (p.i.) (n = 3 for [^177Lu]Lu-5, -6 & -7 (proinhibitor compounds I-III), n = 4 for [^177Lu]Lu-10 (alkyne), n = 5 for [^177Lu]Lu-3 (carbamate I) and n = 5 for [^177Lu]Lu-11 (tetrazole)). Selected organs were removed, weighed and organ activities measured in a γ-counter.\nApproximately 2 - 10 MBq (0.20 nmol) of the ^177Lu-labeled PSMA inhibitors were injected into the tail vein of LNCaP tumor xenograft-bearing male CB17-SCID mice (n = 3 to 5). They were sacrificed by CO2 asphyxiation and cervical dislocation either 1 h or 24 h post injection (p.i.) (n = 3 for [^177Lu]Lu-5, -6 & -7 (proinhibitor compounds I-III), n = 4 for [^177Lu]Lu-10 (alkyne) and n = 5 for [^177Lu]Lu-3 (carbamate I) and n = 5 for [^177Lu]Lu-11 (tetrazole)). Selected organs were removed, weighed and organ activities measured in a γ-counter."}}, "note": "Read-outs that look alike come from different tables or passages of the source."}
{"compound": "CC(C)(C)[Si](F)(c1ccc(C(=O)NC[C@@H](NC(=O)CN2CCN(CC(=O)[O-])CCN(CC(=O)[O-])CCN(CC(=O)[O-])CC2)C(=O)N[C@H](CCCCNC(=O)CCC(=O)NCCC[C@@H](NC(=O)CC[C@H](NC(=O)N[C@@H](CCc2nnn[nH]2)C(=O)O)C(=O)O)C(=O)O)C(=O)O)cc1)C(C)(C)C.[Lu+3]", "note": "[^natLu/[^177Lu]Lu-11]", "values": [{"measurement": "%Internalization compared to the reference", "setting": "LNCaP cells", "result": "1 h: 9.9 ± 3.2%"}, {"measurement": "%Internalization compared to the reference", "setting": "LNCaP cells; listed as [^177Lu]Lu-11", "result": "9.9 ± 3.2", "unit": "%"}, {"measurement": "Biodistribution Adrenals", "setting": "[1]; 1 h p.i.", "result": "0.61 ± 0.42", "unit": "% ID/g"}, {"measurement": "Biodistribution Blood", "setting": "[1]; 1 h p.i.", "result": "1.09 ± 0.30", "unit": "% ID/g"}, {"measurement": "Biodistribution Bone", "setting": "[1]; 1 h p.i.", "result": "0.47 ± 0.44", "unit": "% ID/g"}, {"measurement": "Biodistribution Heart", "setting": "[1]; 1 h p.i.", "result": "0.41 ± 0.04", "unit": "% ID/g"}, {"measurement": "Biodistribution Intestine", "setting": "[1]; 1 h p.i.", "result": "0.67 ± 0.21", "unit": "% ID/g"}, {"measurement": "Biodistribution Kidneys", "setting": "[1]; 1 h p.i.", "result": "33.2 ± 3.8", "unit": "% ID/g"}, {"measurement": "Biodistribution Liver", "setting": "[1]; 1 h p.i.", "result": "0.74 ± 0.17", "unit": "% ID/g"}, {"measurement": "Biodistribution Lung", "setting": "[1]; 1 h p.i.", "result": "1.23 ± 0.27", "unit": "% ID/g"}, {"measurement": "Biodistribution Muscle", "setting": "[1]; 1 h p.i.", "result": "0.15 ± 0.03", "unit": "% ID/g"}, {"measurement": "Biodistribution Pancreas", "setting": "[1]; 1 h p.i.", "result": "0.33 ± 0.11", "unit": "% ID/g"}, {"measurement": "Biodistribution Parotid gland", "setting": "[1]; 1 h p.i.", "result": "0.56 ± 0.08", "unit": "% ID/g"}, {"measurement": "Biodistribution Spleen", "setting": "[1]; 1 h p.i.", "result": "1.04 ± 0.15", "unit": "% ID/g"}, {"measurement": "Biodistribution Stomach", "setting": "[1]; 1 h p.i.", "result": "1.55 ± 1.67", "unit": "% ID/g"}, {"measurement": "Biodistribution Submandibular gland", "setting": "[1]; 1 h p.i.", "result": "0.40 ± 0.05", "unit": "% ID/g"}, {"measurement": "Biodistribution Tumor", "setting": "[1]; 1 h p.i.", "result": "3.40 ± 0.63", "unit": "% ID/g"}, {"measurement": "Ratio Tumor-to-blood", "setting": "[1]; 1 h p.i.", "result": "3.46 ± 1.62"}, {"measurement": "Ratio Tumor-to-kidney", "setting": "[1]; 1 h p.i.", "result": "0.10 ± 0.03"}, {"measurement": "Ratio Tumor-to-liver", "setting": "[1]; 1 h p.i.", "result": "5.00 ± 2.11"}, {"measurement": "Ratio Tumor-to-muscle", "setting": "[1]; 1 h p.i.", "result": "24.9 ± 10.2"}, {"measurement": "Ratio Tumor-to-parotid gland", "setting": "[1]; 1 h p.i.", "result": "6.20 ± 1.74"}, {"measurement": "Ratio Tumor-to-submandibular gland", "setting": "[1]; 1 h p.i.", "result": "8.74 ± 2.52"}, {"measurement": "Biodistribution Adrenals", "setting": "[1]; 24 h p.i.", "result": "0.17 ± 0.19", "unit": "% ID/g"}, {"measurement": "Biodistribution Bone", "setting": "[1]; 24 h p.i.", "result": "0.18 ± 0.04", "unit": "% ID/g"}, {"measurement": "Biodistribution Heart", "setting": "[1]; 24 h p.i.", "result": "0.02 ± 0.00", "unit": "% ID/g"}, {"measurement": "Biodistribution Intestine", "setting": "[1]; 24 h p.i.", "result": "0.52 ± 0.68", "unit": "% ID/g"}, {"measurement": "Biodistribution Kidneys", "setting": "[1]; 24 h p.i.", "result": "3.23 ± 0.77", "unit": "% ID/g"}, {"measurement": "Biodistribution Liver", "setting": "[1]; 24 h p.i.", "result": "0.18 ± 0.04", "unit": "% ID/g"}, {"measurement": "Biodistribution Lung", "setting": "[1]; 24 h p.i.", "result": "0.05 ± 0.02", "unit": "% ID/g"}, {"measurement": "Biodistribution Muscle", "setting": "[1]; 24 h p.i.", "result": "0.02 ± 0.01", "unit": "% ID/g"}, {"measurement": "Biodistribution Pancreas", "setting": "[1]; 24 h p.i.", "result": "0.02 ± 0.00", "unit": "% ID/g"}, {"measurement": "Biodistribution Parotid gland", "setting": "[1]; 24 h p.i.", "result": "0.06 ± 0.02", "unit": "% ID/g"}, {"measurement": "Biodistribution Spleen", "setting": "[1]; 24 h p.i.", "result": "0.11 ± 0.03", "unit": "% ID/g"}, {"measurement": "Biodistribution Stomach", "setting": "[1]; 24 h p.i.", "result": "0.12 ± 0.11", "unit": "% ID/g"}, {"measurement": "Biodistribution Submandibular gland", "setting": "[1]; 24 h p.i.", "result": "0.04 ± 0.01", "unit": "% ID/g"}, {"measurement": "Biodistribution Tumor", "setting": "[1]; 24 h p.i.", "result": "0.68 ± 0.16", "unit": "% ID/g"}, {"measurement": "Ratio Tumor-to-blood", "setting": "[1]; 24 h p.i.", "result": "227 ± 50"}, {"measurement": "Ratio Tumor-to-kidney", "setting": "[1]; 24 h p.i.", "result": "0.22 ± 0.06"}, {"measurement": "Ratio Tumor-to-liver", "setting": "[1]; 24 h p.i.", "result": "3.74 ± 0.50"}, {"measurement": "Ratio Tumor-to-muscle", "setting": "[1]; 24 h p.i.", "result": "55.9 ± 24.3"}, {"measurement": "Ratio Tumor-to-parotid gland", "setting": "[1]; 24 h p.i.", "result": "12.2 ± 1.7"}, {"measurement": "Ratio Tumor-to-submandibular gland", "setting": "[1]; 24 h p.i.", "result": "16.9 ± 2.2"}, {"measurement": "factor by which tumor-to-submandibular gland and tumor-to-parotid gland ratios are lower than for [177Lu]Lu-1", "setting": "[1]; 24 h p.i.", "result": 8}]}
